Assay results: the NIST ThermoML archive (doi:10.1021/je900596d)

Settings: for mass density: Vibrating tube method; for vapor or sublimation pressure: Closed cell (Static) method

FC(F)=C(F)C(F)(F)F [hexafluoropropene]
Settings	mass density [kg/m3]
355.27 K, 1594.4 kPa, Fluid (supercritical or subcritical phases)	103.05
355.27 K, 1615.6 kPa, Fluid (supercritical or subcritical phases)	104.91
355.27 K, 1637.4 kPa, Fluid (supercritical or subcritical phases)	106.88
355.27 K, 1658.5 kPa, Fluid (supercritical or subcritical phases)	108.66
355.27 K, 1679.5 kPa, Fluid (supercritical or subcritical phases)	110.49
355.27 K, 1700.6 kPa, Fluid (supercritical or subcritical phases)	112.4
355.27 K, 1722 kPa, Fluid (supercritical or subcritical phases)	114.41
355.27 K, 1742.9 kPa, Fluid (supercritical or subcritical phases)	116.28
355.27 K, 1765.2 kPa, Fluid (supercritical or subcritical phases)	118.41
355.27 K, 1787.1 kPa, Fluid (supercritical or subcritical phases)	120.47
355.27 K, 1808.3 kPa, Fluid (supercritical or subcritical phases)	122.49
355.27 K, 1829.9 kPa, Fluid (supercritical or subcritical phases)	124.54
355.27 K, 1850.6 kPa, Fluid (supercritical or subcritical phases)	126.59
355.27 K, 1872.5 kPa, Fluid (supercritical or subcritical phases)	128.81
355.27 K, 1894.5 kPa, Fluid (supercritical or subcritical phases)	131.08
355.27 K, 1916.5 kPa, Fluid (supercritical or subcritical phases)	133.35
355.27 K, 1938.7 kPa, Fluid (supercritical or subcritical phases)	135.65
355.27 K, 1959.7 kPa, Fluid (supercritical or subcritical phases)	137.89
355.27 K, 1982.8 kPa, Fluid (supercritical or subcritical phases)	140.34
355.27 K, 2005.5 kPa, Fluid (supercritical or subcritical phases)	142.79
355.27 K, 2026.6 kPa, Fluid (supercritical or subcritical phases)	145.09
355.27 K, 2048.1 kPa, Fluid (supercritical or subcritical phases)	147.46
355.27 K, 2070.2 kPa, Fluid (supercritical or subcritical phases)	150.03
355.27 K, 2091.7 kPa, Fluid (supercritical or subcritical phases)	152.48
355.27 K, 2135.3 kPa, Fluid (supercritical or subcritical phases)	157.72
355.27 K, 2158.3 kPa, Fluid (supercritical or subcritical phases)	160.53
355.27 K, 2179.4 kPa, Fluid (supercritical or subcritical phases)	163.15
355.27 K, 2202.1 kPa, Fluid (supercritical or subcritical phases)	165.99
355.27 K, 2224 kPa, Fluid (supercritical or subcritical phases)	168.96
355.27 K, 2247.3 kPa, Fluid (supercritical or subcritical phases)	172.07
355.27 K, 2269.2 kPa, Fluid (supercritical or subcritical phases)	174.95
355.27 K, 2292 kPa, Fluid (supercritical or subcritical phases)	178.14
355.27 K, 2312.5 kPa, Fluid (supercritical or subcritical phases)	181.03
355.27 K, 2334.2 kPa, Fluid (supercritical or subcritical phases)	184.18
355.27 K, 2357.3 kPa, Fluid (supercritical or subcritical phases)	187.61
355.27 K, 2380.5 kPa, Fluid (supercritical or subcritical phases)	191.26
355.27 K, 2392.5 kPa, Fluid (supercritical or subcritical phases)	193.1
355.27 K, 2415.5 kPa, Fluid (supercritical or subcritical phases)	196.68
355.27 K, 2439.9 kPa, Fluid (supercritical or subcritical phases)	200.64
355.27 K, 2460.5 kPa, Fluid (supercritical or subcritical phases)	204.27
355.27 K, 2484.5 kPa, Fluid (supercritical or subcritical phases)	208.35
355.27 K, 2507 kPa, Fluid (supercritical or subcritical phases)	212.34
355.27 K, 2520.2 kPa, Fluid (supercritical or subcritical phases)	214.82
355.27 K, 2544.4 kPa, Fluid (supercritical or subcritical phases)	219.44
355.27 K, 2556.6 kPa, Fluid (supercritical or subcritical phases)	221.88
355.27 K, 2578.3 kPa, Fluid (supercritical or subcritical phases)	226.29
355.27 K, 2599.8 kPa, Fluid (supercritical or subcritical phases)	230.72
355.27 K, 2622.7 kPa, Fluid (supercritical or subcritical phases)	235.78
355.27 K, 2645.2 kPa, Fluid (supercritical or subcritical phases)	240.85
355.27 K, 2666.2 kPa, Fluid (supercritical or subcritical phases)	245.89
355.27 K, 2688.5 kPa, Fluid (supercritical or subcritical phases)	251.47
355.27 K, 2710.9 kPa, Fluid (supercritical or subcritical phases)	257.56
355.27 K, 2733.3 kPa, Fluid (supercritical or subcritical phases)	263.91
355.27 K, 2754.7 kPa, Fluid (supercritical or subcritical phases)	270.59
355.27 K, 2776.5 kPa, Fluid (supercritical or subcritical phases)	277.69
355.27 K, 2797.6 kPa, Fluid (supercritical or subcritical phases)	285.33
355.27 K, 2818.7 kPa, Fluid (supercritical or subcritical phases)	293.63
355.27 K, 2839.2 kPa, Fluid (supercritical or subcritical phases)	302.86
355.27 K, 2859.6 kPa, Fluid (supercritical or subcritical phases)	313.18
355.27 K, 2880.7 kPa, Fluid (supercritical or subcritical phases)	325.44
355.27 K, 2900.2 kPa, Fluid (supercritical or subcritical phases)	339.29
355.27 K, 2901.3 kPa, Fluid (supercritical or subcritical phases)	340.48
355.27 K, 2902.9 kPa, Fluid (supercritical or subcritical phases)	341.95
355.27 K, 2904 kPa, Fluid (supercritical or subcritical phases)	342.82
355.27 K, 2905.6 kPa, Fluid (supercritical or subcritical phases)	344.36
355.27 K, 2906.7 kPa, Fluid (supercritical or subcritical phases)	345.34
355.27 K, 2908.4 kPa, Fluid (supercritical or subcritical phases)	347.2
355.27 K, 2909.4 kPa, Fluid (supercritical or subcritical phases)	348.62
355.27 K, 2910.6 kPa, Fluid (supercritical or subcritical phases)	349.91
355.27 K, 2911.7 kPa, Fluid (supercritical or subcritical phases)	352.16
355.27 K, 2913.4 kPa, Fluid (supercritical or subcritical phases)	357.67
355.27 K, 2914.7 kPa, Fluid (supercritical or subcritical phases)	388.98
355.27 K, 2915.5 kPa, Fluid (supercritical or subcritical phases)	400.54
357.01 K, 3028.5 kPa, Liquid	789.77
357.01 K, 3030.8 kPa, Liquid	791.93
357.01 K, 3032.9 kPa, Liquid	793.76
357.01 K, 3035 kPa, Liquid	795.08
357.01 K, 3037.1 kPa, Liquid	796.63
357.01 K, 3039.5 kPa, Liquid	798.44
357.01 K, 3041.7 kPa, Liquid	799.96
357.01 K, 3044 kPa, Liquid	801.6
357.01 K, 3046 kPa, Liquid	802.75
357.01 K, 3052 kPa, Liquid	806.74
357.01 K, 3055.7 kPa, Liquid	808.82
357.01 K, 3059.3 kPa, Liquid	810.72
357.01 K, 3062.9 kPa, Liquid	812.63
357.01 K, 3066.3 kPa, Liquid	814.7
357.01 K, 3069.9 kPa, Liquid	816.53
357.01 K, 3073.4 kPa, Liquid	818.11
357.01 K, 3077.1 kPa, Liquid	819.71
357.01 K, 3081.1 kPa, Liquid	821.77
357.01 K, 3084.7 kPa, Liquid	823.28
357.01 K, 3088.4 kPa, Liquid	824.79
357.01 K, 3095.6 kPa, Liquid	828.01
357.01 K, 3097.6 kPa, Liquid	828.88
357.01 K, 3104.3 kPa, Liquid	831.16
357.01 K, 3114.1 kPa, Liquid	834.77
357.01 K, 3123.9 kPa, Liquid	838.1
357.01 K, 3133.7 kPa, Liquid	841.6
357.01 K, 3153.7 kPa, Liquid	847.97
357.01 K, 3163.8 kPa, Liquid	850.53
357.01 K, 3173.8 kPa, Liquid	853.47
357.01 K, 3184.9 kPa, Liquid	856.37
357.01 K, 3195 kPa, Liquid	858.9
357.01 K, 3205.2 kPa, Liquid	861.29
357.01 K, 3230.2 kPa, Liquid	866.99
357.01 K, 3243.1 kPa, Liquid	869.66
357.01 K, 3256.4 kPa, Liquid	872.23
357.01 K, 3269.5 kPa, Liquid	874.91
357.01 K, 3282.6 kPa, Liquid	877.54
357.01 K, 3295.4 kPa, Liquid	879.85
357.01 K, 3307.9 kPa, Liquid	882.22
357.01 K, 3320.3 kPa, Liquid	884.31
357.01 K, 3334 kPa, Liquid	886.47
357.01 K, 3347.2 kPa, Liquid	888.84
357.01 K, 3373.4 kPa, Liquid	892.84
357.01 K, 3387.8 kPa, Liquid	895.05
357.01 K, 3400.4 kPa, Liquid	896.81
357.01 K, 3418.8 kPa, Liquid	899.41
357.01 K, 3438.2 kPa, Liquid	902.07
357.01 K, 3457.5 kPa, Liquid	904.69
357.01 K, 3477.9 kPa, Liquid	907.3
357.01 K, 3514.9 kPa, Liquid	911.85
357.01 K, 3540.5 kPa, Liquid	914.94
357.01 K, 3590.4 kPa, Liquid	920.73
357.01 K, 3614.6 kPa, Liquid	923.49
357.01 K, 3639.2 kPa, Liquid	926.14
357.01 K, 3664.9 kPa, Liquid	928.77
357.01 K, 3689.5 kPa, Liquid	931.28
357.01 K, 3714.8 kPa, Liquid	933.72
357.01 K, 3740.1 kPa, Liquid	936.03
357.01 K, 3764.8 kPa, Liquid	938.27

Liquid
Settings	vapor or sublimation pressure [kPa]
356.24 K	2965.3
356.76 K	2998.5
